Source: ChEMBL document CHEMBL5338723, “Emerging Target-Directed Approaches for the Treatment and Diagnosis of Microbial Infections” (J Med Chem, 2023)
Converted amounts (≈) assume the structure as drawn.

Tests used:
Assay type in all cases: functional
[1] = tested on: Pseudomonas aeruginosa; experiment: Antibacterial activity against Wild type Pseudomonas aeruginosa KW799 assessed as microbial growth inhibition incubated for 20 hrs in iron depleted media by CLSI protocol based broth microdilution method
[2] = tested on: Pseudomonas aeruginosa; experiment: Antibacterial activity against Pseudomonas aeruginosa PAO1 assessed as microbial growth inhibition incubated for 20 hrs in iron depleted media by CLSI protocol based broth microdilution method
[3] = tested on: Pseudomonas aeruginosa; experiment: Antibacterial activity against Pseudomonas aeruginosa KW799/61 assessed as microbial growth inhibition incubated for 20 hrs in iron depleted media by CLSI protocol based broth microdilution method
[4] = tested on: Pseudomonas aeruginosa; experiment: Antibacterial activity against Pseudomonas aeruginosa Pa4 assessed as microbial growth inhibition incubated for 20 hrs in iron depleted media by CLSI protocol based broth microdilution method
[5] = tested on: Acinetobacter baumannii; experiment: Antimicrobial activity against Acinetobacter baumannii ATCC 17978 assessed as microbial growth inhibition under iron-deficient condition
[6] = tested on: Salmonella enteritidis; experiment: Antimicrobial activity against Salmonella enterica subsp. enterica serovar Enteritidis assessed as increase in microbial growth inhibition
[7] = tested on: Salmonella typhimurium; experiment: Antimicrobial activity against Salmonella enterica subsp. enterica serovar Typhimurium assessed as increase in microbial growth inhibition
[8] = tested on: Staphylococcus aureus; experiment: Antimicrobial activity against vancomycin intermediate Staphylococcus aureus assessed as microbial growth inhibition
[9] = tested on: Enterococcus faecalis; experiment: Antimicrobial activity against vancomycin-resistant Enterococcus faecalis ATCC 51575 assessed as microbial growth inhibition
[10] = tested on: Enterococcus faecium; experiment: Antimicrobial activity against vancomycin-resistant Enterococcus faecium ATCC 51559 assessed as microbial growth inhibition
[11] = tested on: Staphylococcus aureus; experiment: Antimicrobial activity against methicillin-resistant Staphylococcus aureus ATCC 33591 assessed as microbial growth inhibition

SMILES: CC(=O)Oc1cccc(C(=O)NCCCC(CCCNC(=O)c2cccc(OC(C)=O)c2OC(C)=O)(CCCNC(=O)c2cccc(OC(C)=O)c2OC(C)=O)NC(=O)CCC(=O)NC(C(=O)NC2C(=O)N3C2SC(C)(C)[C@@H]3C(=O)O)c2ccccc2)c1OC(C)=O (stereo partly drawn)
- MIC [1]: 0.05 µM (≈ 0.0647 µg/mL)
- MIC [2]: 0.05 µM (≈ 0.0647 µg/mL)
- MIC [3]: 0.05 µM (≈ 0.0647 µg/mL)
- MIC [4]: 0.05 µM (≈ 0.0647 µg/mL)

SMILES: CC(=O)N(O)CCCCNC(=O)[C@H](COC(=O)c1cccc(O)c1O)NC(=O)[C@H]1N=C(c2cc(CCCCC(=O)N[C@@H](C(=O)N[C@@H]3C(=O)N4C(C(=O)O)=C(Cl)CS[C@H]34)c3ccccc3)cc(O)c2O)O[C@@H]1C
- MIC [5]: 0.5 µg/mL (≈ 0.481 µM)

SMILES: N[C@@H](C(=O)N[C@@H]1C(=O)N2C(C(=O)O)=C(Cl)CS[C@H]12)c1ccccc1 [CEFACLOR ANHYDROUS]
- MIC [5]: 64 µg/mL (≈ 174 µM)

SMILES: CC1(C)S[C@@H]2[C@H](NC(=O)[C@H](NC(=O)CCCc3cn(CCOCCOCCOCCNC(=O)c4cc(O)c(O)c(C(=O)N[C@H]5COC(=O)[C@@H](NC(=O)c6cccc(O)c6O)COC(=O)[C@@H](NC(=O)c6cccc(O)c6O)COC5=O)c4)nn3)c3ccccc3)C(=O)N2[C@H]1C(=O)O
- MIC [6]: 0.01 µM
- MIC [7]: 0.01 µM

SMILES: CC1=C(C(=O)O)N2C(=O)[C@@H](NC(=O)[C@H](NC(=O)CCCc3cn(CCOCCOCCOCCNC(=O)c4cc(O)c(O)c(C(=O)N[C@H]5COC(=O)[C@@H](NC(=O)c6cccc(O)c6O)COC(=O)[C@@H](NC(=O)c6cccc(O)c6O)COC5=O)c4)nn3)c3ccccc3)[C@H]2SC1
- MIC [6]: 0.01 µM
- MIC [7]: 0.01 µM

SMILES: CN[C@H](CC(C)C)C(=O)N[C@H]1C(=O)N[C@@H](CC(N)=O)C(=O)N[C@H]2C(=O)N[C@H]3C(=O)N[C@H](C(=O)N[C@H](C(=O)NCCCNC(=O)[C@H](O)[C@@H](O)[C@H](O)[C@H](O)CO)c4cc(O)cc(O)c4-c4cc3ccc4O)[C@H](O)c3ccc(c(Cl)c3)Oc3cc2cc(c3O[C@@H]2O[C@H](CO)[C@@H](O)[C@H](O)[C@H]2O[C@H]2C[C@](C)(N)[C@H](O)[C@H](C)O2)Oc2ccc(cc2Cl)[C@H]1O
- MIC [8]: 0.9 µM (≈ 1.52 µg/mL)
- MIC [9]: 60 µM (≈ 101 µg/mL)
- MIC [10]: 54 µM (≈ 90.9 µg/mL)
- MIC [11]: 0.6 µM (≈ 1.01 µg/mL)

SMILES: CC1=C(C(=O)O)N2C(=O)[C@@H](NC(=O)[C@H](NC(=O)CCCc3cn(CCOCCOCCOCCNC(=O)c4cc(O)c(O)c(C(=O)N[C@H]5COC(=O)[C@@H](NC(=O)c6cc([C@@H]7O[C@H](CO)[C@@H](O)[C@H](O)[C@H]7O)cc(O)c6O)COC(=O)[C@@H](NC(=O)c6cc([C@@H]7O[C@H](CO)[C@@H](O)[C@H](O)[C@H]7O)cc(O)c6O)COC5=O)c4)nn3)c3ccccc3)[C@H]2SC1
- MIC [6]: 0.01 µM
- MIC [7]: 0.01 µM

SMILES: C[C@@H](O)[C@H]1C(=O)N2C(C(=O)O)=C(S[C@H]3C[C@@H](C(=O)N(C)C)N(C(=O)CCCc4cn(CCOCCOCCOCCNC(=O)c5cc(O)c(O)c(C(=O)N[C@H]6COC(=O)[C@@H](NC(=O)c7cc([C@@H]8O[C@H](CO)[C@@H](O)[C@H](O)[C@H]8O)cc(O)c7O)COC(=O)[C@@H](NC(=O)c7cc([C@@H]8O[C@H](CO)[C@@H](O)[C@H](O)[C@H]8O)cc(O)c7O)COC6=O)c5)nn4)C3)[C@H](C)[C@H]12
- MIC [6]: 0.01 µM
- MIC [7]: 0.01 µM
